Laboratory results reported in paper PMC6407204, “Oral administration of the cannabigerol derivative VCE-003.2 promotes subventricular zone neurogenesis and protects against mutant huntingtin-induced neurodegeneration” (Translational Neurodegeneration, 2019).
Read-outs that look alike come from different tables or passages of the source.

Columns and labels:
[1] = system: R1 mouse embryonic stem (mES) cell line; assay: Mouse embryonic stem cell (R1) neural differentiation, CTIP2 and doublecortin immunofluorescence; assay type: cell-based; conditions: 500 nM during neural differentiation for 21 days, vs vehicle
Procedure: R1 mouse embryonic stem (mES) cell line was grown on gelatin 0.1%, in Knockout DMEM supplemented with 20% Knockout Serum Replacement, 1000 U ml-1 of LIF, 0.1 mM of non-essential amino acids, 2 mM ultraglutamine, 50 U ml-1 of penicillin and streptomycin and 0.1 mM of 2-mercaptoethanol. Cells were then differentiated at low density in Defined Default Medium (DDM) containing DMEM/F12 + GlutaMAX supplemented with N2 supplement (1×), 5 mM of Hepes Buffer, 0.1 mM of non-essential amino acids, 1 mM of sodium pyruvate, 2.5 mg ml-1 of AlbuMax-I, 30 mM of D-Glucose, 0.1 mM of non-essential amino acids, 0.1 mM of 2-mercaptoethanol, 50 U ml-1 of penicillin and streptomycin for 12 days. […]
Free floating coronal brain slices (30 μm) were processed as previously described. […] The lateral SVZ zone was delineated by using DAPI-counterstained cell nuclei, and analyses were performed in the upper dorsal tier, in which positively-labelled cells and immunoreactivity were quantified not beyond 100 μm of the SVZ. Confocal fluorescence images were acquired by using LAS-X software (Wetzlar, Germany) and SP8 microscope with 2 passes by Kalman filter, a 1024X1024 collection box, and pinhole AU 1. […] Cells were quantified within a 20 × 20 μm counting frame, which randomly sampled within a 122.8 × 68.9 μm counting grid. […]

[2] = Pharmacokinetics in rats, plasma and brain by LC-MS/MS; assay type: in vivo, Sprague Dawley rats; conditions: rat; for concentration at 24 h: brain at 24 h; for AUC(0-t) / Cmax / Tmax: plasma; for bioavailability: oral 50 mg/kg vs i.v. 10 mg/kg, dose-corrected AUCt ratio
Procedure: Six-week old male Sprague Dawley rats (Janvier Labs, France) were located in the rodent area of Eurofins ADME Bioanalyses (Vergèze, France) and housed under standard conditions (12-h light/dark cycle) in groups with access to food and water ad libitum. Each animal was identified by an ear tag and examined for general health and welfare. Process, treatment and euthanasia were conducted according to the current procedures in use at Eurofins ADME Bioanalyses. Animals were treated with a single intravenous bolus of VCE-003.2 (10 mg/Kg in DMSO) or with oral VCE-003.2 (50 mg/Kg in sesame oil). At the prescribed times, blood (0.5 ml) was collected using a capillary tube and plasma frozen at − 20 °C until analysis. After 24 h, the animals were anesthetized and perfused with 20 mL of saline solution directly into the heart to extract the maximal blood sample from the brain. Plasma samples (100 μl) were mixed with 300 μl of acetonitrile and after protein precipitation, analysis of VCE-003.2 content was performed using LC-MS/MS (3 animals per each time point). For brain samples, the tissues were homogenized with an Ultra-turrax® using UHQ water (1/1, w/w). 100 μl of each homogenate was mixed with 300 μl of acetonitrile and the mixture centrifuged for 5 min at 25,000 g. Brain homogenate supernatants were directly measured by LC-MS/MS. Previous studies have shown that there are not significant differences between mice and rats in the main pharmacokinetic parameters of different cannabinoids, including CBG [18]. As the dose used here was different between i.v. and oral routes of administration, bioavailability was calculated taking into account the dose as follows: [AUCt (oral)/dose (oral)]/[AUCt(i.v.)/dose(i.v.)].

[3] = male, Sprague Dawley, in vivo, iv, single i.v. 10 mg/kg
[4] = male, Sprague Dawley, in vivo, single oral 50 mg/kg in sesame oil

## CCCCCC1=C(NCC)C(=O)C(CC=C(C)CCC=C(C)C)=C(O)C1=O [VCE-003.2, 2-(3,7-dimethyl-octa-2,6-dienyl)-6-ethylamino-3-hydroxy-5-pentyl-(1,4) benzoquinone]
[1]
  doublecortin immunoreactivity: increased
  number of CTIP2-positive cells: increased the number of CTIP2-positive cells
[2]; [3]
  concentration at 24 h: 93.7 ± 37.7 ng/mL
  AUC(0-t): 475 µg·h/mL
  Cmax: 83200 ng/mL
  Tmax: 0.08 h
[2]; male, Sprague Dawley, in vivo, single oral 50 mg/kg
  concentration at 24 h: 86.8 ± 34 ng/mL
[2]; [4]
  AUC(0-t): 327 µg·h/mL
  Cmax: 20300 ng/mL
  Tmax: 8 h
[2]; male, Sprague Dawley, in vivo, read-out: Bioavailability
  bioavailability: 13.8%
[2]
  bioavailability: 13.77%
